In ChEMBL document CHEMBL1157539, “Thousands of chemical starting points for antimalarial lead identification” (Nature, 2010):
Several values for one entry are separate records, joined by “and”; a condition that tells them apart may be missing. Equal values may be shown once.

Tested on: Plasmodium falciparum
Test: GSK_TCMDC: Inhibition of Plasmodium falciparum 3D7 in whole erythrocytes, using parasite LDH activity as an index of growth.
Format: functional, organism-based

SMILES	XC50 (Plasmodium falciparum, 3D7)	XC50
O=C(NC1CCC(CN2CCC(c3c[nH]c4ccccc34)CC2)CC1)c1cc(-c2ccccc2)c(C(F)(F)F)s1 (configuration not stated)	0.167 µM	–
O=C(Cc1cccs1)NC(CCCN1CCC(Oc2cccc(Cl)c2)CC1)c1ccc(Cl)c(Cl)c1 (configuration not stated)	0.247 µM	–
COc1cc2ncnc(Nc3ccc(OCc4ccccc4)c(C(F)(F)F)c3)c2cc1OC	0.253 µM	–
CN1CCN(c2ccc(-c3cc(-c4ccncc4)c(-c4ccc(Cl)c(O)c4)o3)cc2)CC1	0.737 µM	–
O=C(/C=C/c1ccc(Cl)c(Cl)c1)NC1CCC(CN2CCC(c3c[nH]c4ccc(O)cc34)CC2)CC1 (configuration not stated)	–	0.417 µM and 0.14 µM
CCNc1cc(C(=O)N[C@@H](Cc2ccccc2)[C@H](O)CNC(C)CCCC(C)C)cc(N2CCCS2(=O)=O)c1 (some centres not stated)	0.219 µM	–
CCN(CC)CCCC(C)Nc1ccnc2ccc(-c3ccccc3)cc12 (configuration not stated)	0.652 µM	–
O=C(NCc1cccs1)[C@H](Cc1ccccc1)Nc1ccnc(NCC2CCCCC2)n1	1.05 µM	–
O=C(Cc1ccccc1)NC(CCN1CCC(O)(c2cccc(C(F)(F)F)c2)CC1)c1ccc(Cl)c(Cl)c1 (configuration not stated)	0.855 µM	–
COc1ccc(NC(=O)/C=C/c2ccccc2Cl)cc1OCCN1CCC(N2CCCCC2)CC1	0.901 µM	–
CCCc1cc(Cc2cnc(N)nc2N)cc(CCC)c1OCCCC(=O)OCC	0.0518 µM	–
CCCN(CCC)C(=S)N/N=C1/C(=O)Nc2ccccc21	0.815 µM	–
CN1CCN(c2ccc3[nH]c(-c4ccc(Cc5cc(Cl)ccc5OCc5ccccc5)o4)nc3c2)CC1	0.807 µM	–
NC(=O)c1cccc(C(=O)Nc2ccc(-c3cccc(-c4nc5cc(C(F)(F)F)ccc5[nH]4)c3)cc2)c1	0.35 µM	–
FC(F)(F)c1cccc(CNCCCCCNCc2ccc(Cl)cc2)c1	1.03 µM	–
CN1CCC(C(=O)Nc2cccc(-c3ccc(-c4nc5ccccc5[nH]4)cc3)c2)CC1	1.09 µM	–
COc1cc2ccccc2c(OC)c1CNCCCCCCNCc1c(OC)cc2ccccc2c1OC	0.988 µM	–
COc1ccc2nccc([C@H](O)CN3CCC(NCc4ccc5c(c4C)OCCO5)CC3)c2n1	0.886 µM	–
O=c1cc(NCCCNCc2cccc(C(F)(F)F)c2Cl)[nH]c2ccccc12	0.804 µM	–
COc1ccc(F)cc1-c1cccc(CNC2CCN(CC3Cn4c(=O)ccc5ccc(F)c3c54)CC2)c1 (configuration not stated)	0.83 µM	–
COc1ccc(C2(CNCC(O)c3cccc([N+](=O)[O-])c3)CCCC2)cc1OC (configuration not stated)	0.891 µM	–
Cc1[nH]c2ccc(O)cc2c1C1CCN(CC2CCC(NC(=O)/C=C/c3ccc(Cl)c(Cl)c3)CC2)CC1 (configuration not stated)	0.764 µM	–

SMILES	XC50 (Plasmodium falciparum, 3D7)	XC50
Cc1ccc(-n2cc(CNCCc3nc(C)c[nH]3)c(-c3ccc(F)cc3)n2)cc1	1.51 µM	–
Cn1nc(C(F)(F)F)cc1-c1ccc(C(=O)NC2CCC(CN3CCC(c4c[nH]c5ccccc45)CC3)CC2)s1 (configuration not stated)	0.565 µM	–
Cc1cc2ncn(-c3nccc(NCc4ccc(F)c(C)c4)n3)c2cc1C	0.99 µM	–
O=C(N[C@H]1CCN(CCc2ccc(O[C@H]3CCNC3)c(F)c2)C1)c1ccc(Cl)c(Cl)c1	1.19 µM	–
N=C(N)NCC=C(c1ccccc1)c1ccccc1	0.989 µM	–
N#Cc1ccc(N/C(=N\c2ccc(-c3ccccc3)cc2)NCc2cccnc2)c(O)c1	0.813 µM	–
Cc1ccoc1C(=O)Nc1ccc(-c2cccc(-c3nc4cccc(C)c4[nH]3)c2)cc1	0.726 µM	–
N#Cc1cccc(NC(=O)Nc2cccc(-c3cccc(-c4nc5cc(C(F)(F)F)ccc5[nH]4)c3)c2)c1	0.224 µM	–
CN(C)c1ccc(CN2CCC(NC(=O)c3ccc(-c4cccc(F)c4)s3)CC2)cc1	1.49 µM	–
CCC(c1ccccc1)c1nn2c(-c3cccs3)nnc2s1 (configuration not stated)	0.167 µM	–
Cc1cccc(-c2ccc3c(c2)CC(NCc2cccc(-n4ccnc4)c2)C3)c1 (configuration not stated)	0.874 µM	–
Cc1cc(O)c(CN(C)Cc2ccc3c(c2)OCO3)cc1C(C)C	0.738 µM	–
CCCCCCc1ncc(-c2cc3cc(O)c(-c4ccccc4)cc3oc2=O)s1	1.24 µM	–
CCN1CCN(c2cc(C)c3cc(NC(=O)c4ccc(OC)c(OC)c4)ccc3n2)CC1	1.03 µM	–
O=C(CSc1nc(-c2ccccc2Cl)ns1)Nc1ccc2c(c1)OCO2	0.988 µM	–
COc1cc(F)c2ncc(F)c([C@@H](O)CN3CCC(NCc4cc5c(cn4)OCCO5)CC3)c2c1	0.477 µM	–
Cc1nc(-c2cccc3c(NC(=O)Nc4ccc5nccc(N6CCN(C)CC6)c5c4)cccc23)no1	0.235 µM	–
COc1cc(C2CCN(CCCCNC(=O)c3ccc(NC(=O)c4cc(C(F)(F)F)cc(C(F)(F)F)c4)cc3)CC2)ccc1OC(C)C	0.154 µM	–
COc1ccc(Nc2nccc(N3CCC(NC(=O)c4cccc(NC(C)=O)c4)C3)n2)cc1 (configuration not stated)	0.994 µM	–
O=c1cnc2ccc(F)cc2n1CCN1CCC(NCc2cc(-c3ccccc3)cs2)CC1	0.863 µM	–
O=C(Nc1cccc(-c2ccc(CN3CCC(O)CC3)cc2)c1)c1ccc(Cl)cc1	0.961 µM	–
Cc1cccc(CNc2nc(C)cc(NCCC(=O)NCc3cccc(F)c3)n2)c1	0.85 µM	–

SMILES	XC50 (Plasmodium falciparum, 3D7)	XC50
CCc1nc(N)nc(N)c1-c1ccc(C(C)C)cc1	0.834 µM	–
COc1ccc(C#Cc2ccc(-c3c(C)[nH]c(C)c(Cl)c3=O)cc2)cc1	0.0665 µM	–
CCN(CC)CCCOc1ccc(Nc2nccc(-c3c(-c4cccc(NC(=O)c5c(F)cccc5F)c4)nn4ccccc34)n2)cc1F	0.407 µM	–
N#Cc1ccc(N(CCNS(=O)(=O)c2cc(Br)c(Cl)s2)Cc2ccccc2C(F)(F)F)cc1C(F)(F)F	0.857 µM	–
CN1CCN(c2ccc(Nc3c(C(N)=O)cnc4cc(-c5ccoc5)ccc34)cc2C(F)(F)F)CC1	0.785 µM	–
CCN(CC)c1nc(N)c2c(N)nc3c(c2c1C#N)C(=O)CN3Cc1ccccc1	0.0708 µM	–
O=C(NC1CCN(c2ccnc3ccccc23)C1)c1cccc(C(F)(F)F)c1 (configuration not stated)	0.897 µM	–
CC(C)CCNCc1c(O)ccc2ccccc12	1.67 µM	–
CNC(=O)Cc1ccc(C(=O)Nc2cccc(-c3csc(-c4nc5ccccc5[nH]4)c3)c2)cc1	0.273 µM	–
O=C(/C=C/c1ccc(Cl)c(Cl)c1)NC1C2CCC1CC(CN1CCC(c3c[nH]c4ccccc34)CC1)C2 (configuration not stated)	0.203 µM	–
Fc1ccccc1CNc1ncc(-c2ccsc2)c(-c2nccs2)n1	0.054 µM	–
CC(C)CCN1C(=O)C(NC(=O)Oc2ccccc2)C(=O)N(CC23CC4CC(CC(C4)C2)C3)c2ccccc21 (configuration not stated)	0.752 µM	–
O=C(Nc1ccccc1C(F)(F)F)NC1CCC(CN2CCC(c3c[nH]c4ccccc34)CC2)CC1 (configuration not stated)	0.784 µM	0.946 µM
Cc1cc(N(C)C)nc(Nc2ccc(NC(=O)c3c(F)cccc3Cl)cc2)n1	1.09 µM	–
COc1ccc(NC(=O)[C@H](Cc2ccccc2)Nc2nc(NCCN3CCCC3)ncc2C)cc1	0.988 µM	–
COc1cccc2cc(C(=O)N[C@@H](CC(C)C)C(=O)N[C@H](/C=N/N3C(=O)CN(Cc4ccccc4)C3=O)CCc3ccccc3)oc12	0.618 µM	–
Cc1cc(-c2cccc(CNC3CCN(C)CC3)c2)ccc1S(=O)(=O)NCCN1CCCC1	0.977 µM	–
COc1cc2nccc(Nc3ccc4c(cnn4Cc4ccccc4F)c3)c2cc1OC	0.4 µM	–
Cc1cc2nc(-c3ccc(C(=O)NCc4cccc(F)c4)cc3)[nH]c2cc1C	0.962 µM	–
Cc1cccc2nc(-c3cccc(-c4cccc(NC(=O)c5cncn5C)c4)c3)[nH]c12	0.167 µM	–
C=CCc1cc(Br)ccc1OCCCON1C(N)=NC(N)=NC1(C)C	0.0032 µM	–
O=C(NC1CCCCC1)N(Cc1ccc(-c2cccc(CNC3CCCC3)c2)cc1)C1CCN(Cc2ccccc2)CC1	0.785 µM	–

SMILES	XC50 (Plasmodium falciparum, 3D7)	XC50
O=C(c1cc(C(=O)NCc2ccc(Cl)cc2)c(=O)n(Cc2ccc(Cl)cc2)c1)c1cc(Cl)ccc1O	1.4 µM	–
CCc1ccc(NC(=O)c2cccc(CN3CCCN(Cc4cccc(O)c4)CC3)c2)cc1	0.894 µM	–
CCCc1cc(Cc2cnc(N)nc2N)cc(OCCCCCC(=O)O)c1OC	0.164 µM	–
O=C(N[C@@H](CC1CCCCC1)C(=O)NC1CCCCC1)c1ccc(O)c(-c2cccc(C(F)(F)F)c2)c1	0.747 µM	–
CCc1ccc(CN2CCC(NC(=O)c3ccc(-c4ccccc4F)s3)CC2)cc1	1.49 µM	–
Cc1ccc(C2CC(c3cccs3)=NN2C(=O)c2ccc(Br)o2)cc1 (configuration not stated)	0.887 µM	–
Fc1cc(Cl)ccc1Nc1ccnc2cc(-c3scnc3CNCCN3CCOCC3)ccc12	0.848 µM	–
CC(C)c1ccc(NC(=O)c2ccc(C(=O)NC3CCN(CC4CCCCC4)CC3)cc2)cc1	0.645 µM	–
Cc1cccc2nc(-c3ccc(-c4ccc(CNCc5cnn(-c6ccccc6)n5)cc4)s3)[nH]c12	0.718 µM	–
CCNc1cc(C(=O)N[C@@H](Cc2ccccc2)[C@H](O)CNC2(CC(C)C)CC2)cc(N2CCCCS2(=O)=O)c1	1.02 µM	–
CCn1cc(-c2nc(-c3cc(OC)cc(OC)c3)no2)c(=O)c2ccccc21	0.338 µM	–
Cc1cccc2nc(-c3ccc(-c4ccc(NC(=O)C(C)CN(C)C)cc4)cc3)[nH]c12 (configuration not stated)	0.681 µM	–
CCN(CC)CCNc1ccnc2[nH]c3ccc(I)cc3c12	0.23 µM	–
O=C(Nc1cccc(CN2CCCN(Cc3ccc4c(c3)OCO4)CC2)c1)c1ccc2ccccc2c1	1.05 µM	–
Cc1ccc(-c2noc(=O)n2CC(=O)Nc2ccccc2-c2ccccc2)cc1	0.807 µM	–
FC(F)(F)c1ccc(NC(=S)NC2CCC(CN3CCC(c4c[nH]c5ccccc45)CC3)CC2)cc1 (configuration not stated)	0.392 µM	0.726 µM
Cc1cc(NC(=O)NCCN2CCC(NS(=O)(=O)c3ccc(Br)cc3)C2)c2ccccc2n1 (configuration not stated)	0.602 µM	–
O=C(Nc1cccc(CN2CCCN(CCc3ccccc3)CC2)c1)c1ccc(Cl)c(Cl)c1	0.952 µM	–
Cc1ccc2c(N/N=C/c3ccccc3[N+](=O)[O-])cc(C)nc2c1	0.416 µM	–
